The term IC50 denotes the point on the concentration scale where inhibition reaches its midpoint.

IC50 data for 26 compounds are collected here from patent publication US9789100B2, “Compounds as rearranged during transfection (RET) inhibitors” (GlaxoSmithKline Intellectual Property Development Limited, priority 2013, dated 2017).

Molecules are shown by their SMILES. Counter-ions that a name gives are not always drawn. Like-named read-outs stand apart in the source and are kept apart here.

Experiment [1] deals with Human RET kinase cytoplasmic domain (Homo sapiens (Human), UniProt P07949). In words: RET kinase enzymatic assay. The experiment is classed as biochemical. The conditions noted are these: human RET kinase enzymatic assay (Table 2). On the procedure: RET Kinase Enzymatic Assay
Human RET kinase cytoplasmic domain, sequence (P07949 658-1114): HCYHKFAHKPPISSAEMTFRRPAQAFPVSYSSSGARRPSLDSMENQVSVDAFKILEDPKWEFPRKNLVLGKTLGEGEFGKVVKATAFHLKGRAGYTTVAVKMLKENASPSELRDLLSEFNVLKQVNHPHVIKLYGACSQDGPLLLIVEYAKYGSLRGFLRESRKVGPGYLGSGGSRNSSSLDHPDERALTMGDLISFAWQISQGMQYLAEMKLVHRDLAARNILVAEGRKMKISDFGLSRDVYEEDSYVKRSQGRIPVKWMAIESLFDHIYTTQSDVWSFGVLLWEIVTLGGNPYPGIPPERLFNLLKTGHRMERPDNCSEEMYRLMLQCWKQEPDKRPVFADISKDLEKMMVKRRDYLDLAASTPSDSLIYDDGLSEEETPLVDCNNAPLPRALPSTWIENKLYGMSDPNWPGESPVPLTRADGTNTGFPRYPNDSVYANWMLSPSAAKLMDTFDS
GST-RET was purified using glutathione sepharose chromatography. The RET kinase enzymatic assay was performed in a total volume of 10 uL with increasing concentrations of RET kinase inhibitor as a singlet in a 384 well format as follows: RET inhibitor compound plates are prepared by adding 100 nL of RET inhibitor at different concentrations to a 384-well plate. 5 μL/well of a 2× enzyme mix (50 mM HEPES (4-(2-hydroxyethyl)-1-piperazineethanesulfonic acid); 1 mM CHAPS (3[(3-cholamidopropyl)dimethylammonio]-1-propanesulfonate); 0.1 mg/mL BSA (bovine serum albumin); 1 mM DTT (dithiothreitol); 0.2 nM RET kinase) was added to the 384-well plate and incubated for 30 minutes at 23° C.

In experiment [2] the test system is TT cells. Briefly: RET kinase cell-based proliferation assay. Details: species or system human. The conditions noted are these: 192 h, read-out: RET IC50. An excerpt: RET Kinase Cell-Based Proliferation Assay
Experiment [3] addresses constitutive RET kinase phosphorylation in TT cells (Homo sapiens (Human), UniProt P07949, C634W). In words: RET kinase cell-based mechanistic assay.
Description: RET Kinase Cell-Based Mechanistic Assay
The potency of the compound of the invention was tested for its ability to inhibit constitutive RET kinase phosphorylation in cell-based assay. […] 1.0E5 TT cells/well were plated in a 96-well cell culture plate and allowed to adhere overnight. […] IC50s were fitted using GraphPad Prism to a sigmoidal dose response.
Setting [4] is: human RET kinase cell-based proliferation assay, TT cells, eight days (Table 4).

constitutive RET kinase phosphorylation in TT cells, sequence (P07949 29-1114 C634W): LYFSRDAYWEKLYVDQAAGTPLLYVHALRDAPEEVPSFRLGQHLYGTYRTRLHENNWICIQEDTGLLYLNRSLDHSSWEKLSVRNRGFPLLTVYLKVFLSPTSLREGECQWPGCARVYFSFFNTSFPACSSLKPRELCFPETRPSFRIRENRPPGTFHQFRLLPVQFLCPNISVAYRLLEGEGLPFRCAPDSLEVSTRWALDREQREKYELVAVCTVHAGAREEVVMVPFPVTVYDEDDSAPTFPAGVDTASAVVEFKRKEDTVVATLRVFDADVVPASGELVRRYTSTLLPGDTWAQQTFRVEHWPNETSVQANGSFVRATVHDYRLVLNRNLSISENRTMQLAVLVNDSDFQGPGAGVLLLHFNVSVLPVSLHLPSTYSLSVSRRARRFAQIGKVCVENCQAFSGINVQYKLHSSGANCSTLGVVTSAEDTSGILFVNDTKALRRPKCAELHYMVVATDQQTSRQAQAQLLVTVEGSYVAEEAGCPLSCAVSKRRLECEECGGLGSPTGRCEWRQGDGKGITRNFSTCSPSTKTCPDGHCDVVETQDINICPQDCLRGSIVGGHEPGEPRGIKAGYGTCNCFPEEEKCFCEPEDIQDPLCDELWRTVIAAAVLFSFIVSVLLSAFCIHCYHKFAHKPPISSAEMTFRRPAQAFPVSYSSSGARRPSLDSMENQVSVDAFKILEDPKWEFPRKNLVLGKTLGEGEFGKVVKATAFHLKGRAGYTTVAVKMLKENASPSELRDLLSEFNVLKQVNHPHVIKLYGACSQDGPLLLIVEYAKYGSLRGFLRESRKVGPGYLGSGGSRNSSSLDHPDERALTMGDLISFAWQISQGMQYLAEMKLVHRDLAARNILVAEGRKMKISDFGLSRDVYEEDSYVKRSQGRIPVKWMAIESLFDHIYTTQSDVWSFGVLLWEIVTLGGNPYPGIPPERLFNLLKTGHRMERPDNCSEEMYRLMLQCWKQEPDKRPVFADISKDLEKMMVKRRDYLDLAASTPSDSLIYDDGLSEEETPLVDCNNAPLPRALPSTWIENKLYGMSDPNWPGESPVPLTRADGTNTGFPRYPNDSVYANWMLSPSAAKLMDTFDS

Consider `CCOc1cc(-c2ccc(CC(=O)Nc3cnc(C(C)(C)O)c(C(F)(F)F)c3)c(F)c2)c[nH]c1=O` [Example 1, 2-(4-(5-Ethoxy-6-oxo-1,6-dihydropyridin-3-yl)-2-fluorophenyl)-N-(6-(2-hydroxypropan-2-yl)-5-(trifluoromethyl)pyridin-3-yl)acetamide], for which the concentration for half-maximal inhibition (IC50) in experiment [1] was under 100 nM.
On the same count and under the same terms, in the case of `CCOc1ncc(NC(=O)Cc2ccc(-c3c[nH]c(=O)c(OCC)c3)cc2F)cc1C(F)(F)F` [Example 2, N-(6-Ethoxy-5-(trifluoromethyl)pyridin-3-yl)-2-(4-(5-ethoxy-6-oxo-1,6-dihydropyridin-3-yl)-2-fluorophenyl)acetamide hydrochloride] it was under 100 nM; in that of `CCOc1cc(-c2ccc(CC(=O)Nc3ccc(CC(C)(C)CO)c(C(F)(F)F)c3)c(F)c2)c[nH]c1=O` [Example 5, 2-(4-(5-Ethoxy-6-oxo-1,6-dihydropyridin-3-yl)-2-fluorophenyl)-N-(4-(3-hydroxy-2,2-dimethylpropyl)-3-(trifluoromethyl)phenyl)acetamide], under 100 nM.
Same read-out and setting: in the case of `CCOc1cc(-c2ccc(CC(=O)Nc3ccc(CC(C)(C)CO)c(C(F)(F)F)c3)cc2F)c[nH]c1=O` [Example 6, 2-(4-(5-Ethoxy-6-oxo-1,6-dihydropyridin-3-yl)-3-fluorophenyl)-N-(4-(3-hydroxy-2,2-dimethylpropyl)-3-(trifluoromethyl)phenyl)acetamide] it was under 100 nM.
In experiment [1], `CCOc1cc(=O)[nH]cc1-c1ccc(CC(=O)Nc2ccc(C#N)c(C(F)(F)F)c2)cc1F` [Example 7, N-(4-Cyano-3-(trifluoromethyl)phenyl)-2-(4-(4-ethoxy-6-oxo-1,6-dihydropyridin-3-yl)-3-fluorophenyl)acetamide] returned an IC50 of under 100 nM.
Consider `CCOc1cc(-c2ccc(CC(=O)Nc3ccc(C#N)c(C(F)(F)F)c3)c(F)c2)c[nH]c1=O` [Example 9, N-(4-Cyano-3-(trifluoro-methyl)phenyl)-2-(4-(5-ethoxy-6-oxo-1,6-dihydro-pyridin-3-yl)-2-fluorophenyl)acetamide], for which, in experiment [1], the concentration for half-maximal inhibition (IC50) was under 100 nM.
For `CCOc1cc(=O)[nH]cc1-c1ccc(CC(=O)Nc2cnc(OCCN(C)C)c(C(F)(F)F)c2)c(F)c1` [Example 10, N-(6-(2-(Dimethylamino)ethoxy)-5-(trifluoromethyl)pyridin-3-yl)-2-(4-(4-ethoxy-6-oxo-1,6-dihydropyridin-3-yl)-2-fluorophenyl)acetamide dihydrochloride], the concentration for half-maximal inhibition (IC50) in experiment [2] (Homo sapiens, TT) was in the range of 500 to 10000 nM; in experiment [3], 500 to 10000 nM; in experiment [1] it was 100 to 500 nM.
`CCOc1cc(-c2ccc(CC(=O)Nc3cc(-n4cnc(C)c4)cc(C(F)(F)F)c3)c(F)c2)c[nH]c1=O` [Example 11, 2-(4-(5-Ethoxy-6-oxo-1,6-dihydropyridin-3-yl)-2-fluorophenyl)-N-(3-(4-methyl-1H-imidazol-1-yl)-5-(trifluoromethyl)phenyl)acetamide hydrochloride] registered an IC50 in experiment [1] of under 100 nM.
`CCOc1cc(-c2ccc(CC(=O)Nc3ccc(OCCO)c(C(F)(F)F)c3)c(F)c2)c[nH]c1=O` [Example 13, 2-(4-(5-Ethoxy-6-oxo-1,6-dihydropyridin-3-yl)-2-fluorophenyl)-N-(4-(2-hydroxyethoxy)-3-(trifluoromethyl)phenyl)acetamide] gave a concentration for half-maximal inhibition (IC50) in experiment [1] of under 100 nM.
Same read-out and setting: the value for `CCOc1cc(-c2ccc(CC(=O)Nc3cnc(CC#N)c(C(F)(F)F)c3)c(F)c2)c[nH]c1=O` [Example 14, N-(6-(Cyanomethyl)-5-(trifluoromethyl)pyridin-3-yl)-2-(4-(5-ethoxy-6-oxo-1,6-dihydropyridin-3-yl)-2-fluorophenyl)acetamide hydrochloride] was 500 to 10000 nM.
Still for that read-out and setting: the value for `CCOc1cc(-c2ccc(CC(=O)Nc3ccc(Cl)c(C(F)(F)F)c3)c(F)c2)c[nH]c1=O` [Example 16, N-(4-Chloro-3-(trifluoromethyl)phenyl)-2-(4-(5-ethoxy-6-oxo-1,6-dihydropyridin-3-yl)-2-fluorophenyl)acetamide] was under 100 nM.
Same read-out and setting: the value for `CCOc1cc(-c2ccc(CC(=O)Nc3ccc(CN(C)C)c(C(F)(F)F)c3)c(F)c2)c[nH]c1=O` [Example 17, N-(4-((Dimethylamino)methyl)-3-(trifluoromethyl)phenyl)-2-(4-(5-ethoxy-6-oxo-1,6-dihydropyridin-3-yl)-2-fluorophenyl)acetamide hydrochloride] was under 100 nM.
The compound `CCOc1cc(-c2ccc(CC(=O)Nc3ccc(Cl)c(Cl)c3)c(F)c2)c[nH]c1=O` [Example 18, N-(3,4-Dichlorophenyl)-2-(4-(5-ethoxy-6-oxo-1,6-dihydropyridin-3-yl)-2-fluorophenyl)acetamide] had a half-inhibitory concentration (IC50) in experiment [1] of 100 to 500 nM.
Still for that read-out and setting: the value for `CCOc1cc(-c2ccc(CC(=O)Nc3cc(C(C)(C)C(F)(F)F)on3)c(F)c2)c[nH]c1=O` [Example 19, 2-(4-(5-Ethoxy-6-oxo-1,6-dihydropyridin-3-yl)-2-fluorophenyl)-N-(5-(1,1,1-trifluoro-2-methylpropan-2-yl)isoxazol-3-yl)acetamide] was under 100 nM.
Take `CCOc1cc(-c2ccc(CC(=O)Nc3ccc(CN4CCN(CC)CC4)c(C(F)(F)F)c3)c(F)c2)c[nH]c1=O` [Example 21, 2-(4-(5-Ethoxy-6-oxo-1,6-dihydropyridin-3-yl)-2-fluorophenyl)-N-(4-((4-ethylpiperazin-1-yl)methyl)-3-(trifluoromethyl)phenyl)acetamide, dihydrochloride]: the IC50 in experiment [3] and in experiment [1] was under 100 nM each time.
For `CCOc1cc(-c2ccc(CC(=O)Nc3cc(F)ccc3F)c(F)c2)c[nH]c1=O` [Example 22, N-(2,5-Difluorophenyl)-2-(4-(5-ethoxy-6-oxo-1,6-dihydropyridin-3-yl)-2-fluorophenyl)acetamide], in experiment [1], the IC50 lay in the range of 500 to 10000 nM.
Same read-out and setting: in the case of `CCOc1cc(-c2ccc(CC(=O)Nc3ccc(C(N)=O)c(C(F)(F)F)c3)c(F)c2)c[nH]c1=O` [Example 23] it was 100 to 500 nM; in that of `CCOc1cc(-c2ccc(CC(=O)Nc3cc(C(F)(F)F)c(F)cc3F)c(F)c2)c[nH]c1=O` [Example 24], under 100 nM; in that of `CCOc1cc(-c2ccc(CC(=O)Nc3cc(C(F)(F)F)cc(C(F)(F)F)c3)c(F)c2)c[nH]c1=O` [Example 25], under 100 nM.
Regarding `CCOc1cc(-c2ccc(CC(=O)Nc3cc(C(C)(C)C(F)(F)F)no3)c(F)c2)c[nH]c1=O` [Example 28, 2-(4-(5-Ethoxy-6-oxo-1,6-dihydropyridin-3-yl)-2-fluorophenyl)-N-(3-(1,1,1-trifluoro-2-methylpropan-2-yl)isoxazol-5-yl)acetamide], the concentration for half-maximal inhibition (IC50) in experiment [2] (setting [4]), in experiment [3] and in experiment [1] was under 100 nM each time.
Take `CCOc1cc(=O)[nH]cc1-c1ccc(CC(=O)Nc2cnc(C(C)(C)CO)c(C(F)(F)F)c2)c(F)c1` [Example 31, 2-(4-(4-Ethoxy-6-oxo-1,6-dihydropyridin-3-yl)-2-fluorophenyl)-N-(6-(1-hydroxy-2-methylpropan-2-yl)-5-(trifluoromethyl)pyridin-3-yl)acetamide]: the IC50 in experiment [2] (setting [4]), in experiment [3] and in experiment [1] was under 100 nM each time.
Regarding `CCOc1cc(=O)[nH]cc1-c1ccc(CC(=O)Nc2ccc(CC(C)(C)CO)c(C(F)(F)F)c2)cc1F` [Example 32, 2-(4-(4-Ethoxy-6-oxo-1,6-dihydropyridin-3-yl)-3-fluorophenyl)-N-(4-(3-hydroxy-2,2-dimethylpropyl)-3-(trifluoromethyl)phenyl)acetamide], the half-maximal inhibitory concentration (IC50) in experiment [2] (setting [4]), in experiment [3] and in experiment [1] was under 100 nM each time.
Take `CCOc1cc(-c2ccc(CC(=O)Nc3cc(-n4cc(C)cn4)cc(C(F)(F)F)c3)c(F)c2)c[nH]c1=O` [Example 34, 2-(4-(5-ethoxy-6-oxo-1,6-dihydropyridin-3-yl)-2-fluorophenyl)-N-(3-(4-methyl-1H-pyrazol-1-yl)-5-(trifluoromethyl)phenyl)acetamide hydrochloride]: the IC50 in experiment [2] (Homo sapiens, TT) was 100 to 500 nM; in experiment [3], 100 to 500 nM; in experiment [1], under 100 nM.
With `CCOc1cc(-c2ccc(CC(=O)Nc3cc(-n4ccc(C)n4)cc(C(F)(F)F)c3)c(F)c2)c[nH]c1=O` [Example 35, 2-(4-(5-ethoxy-6-oxo-1,6-dihydropyridin-3-yl)-2-fluorophenyl)-N-(3-(3-methyl-1H-pyrazol-1-yl)-5-(trifluoromethyl)phenyl)acetamide hydrochloride], the IC50 was 100 to 500 nM in experiment [2] (Homo sapiens, TT); under 100 nM in experiment [3]; under 100 nM in experiment [1].
`CCOc1cc(-c2ccc(CC(=O)Nc3cc(-c4cn[nH]c4)cc(C(F)(F)F)c3)c(F)c2)c[nH]c1=O` [Example 36, N-(3-(1H-pyrazol-4-yl)-5-(trifluoromethyl)phenyl)-2-(4-(5-ethoxy-6-oxo-1,6-dihydropyridin-3-yl)-2-fluorophenyl)acetamide hydrochloride]: the IC50 in experiment [2] (Homo sapiens, TT) is 100 to 500 nM; in experiment [3], under 100 nM; in experiment [1] it was under 100 nM.
In experiment [1], `CCOc1cc(-c2ccc(CC(=O)Nc3cc(-c4nn[nH]n4)cc(C(F)(F)F)c3)c(F)c2)c[nH]c1=O` [Example 44, N-(3-(2H-tetrazol-5-yl)-5-(trifluoromethyl)phenyl)-2-(4-(5-ethoxy-6-oxo-1,6-dihydropyridin-3-yl)-2-fluorophenyl)acetamide] returned a 50% inhibitory concentration (IC50) of under 100 nM.
